This is an account of results in ChEMBL document CHEMBL4680174, “Synthesis, biological evaluation and in silico modeling of novel integrase strand transfer inhibitors (INSTIs)” (Eur J Med Chem, 2020).

For data set [1], the system named is Human immunodeficiency virus 1. As to the kind of experiment: Antiviral activity against HIV1 3B infected in human CEM-SS cells assessed as reduction in cytopathic effect after 4 days. It counts as functional, organism-based. In general terms: Protection from cytopathic effect is a common read-out in antiviral testing.
Data set [2] is described as follows: Cytotoxicity against human CEM-SS cells assessed as reduction in cell viability by XTT assay. It is filed as cell-based. (Formazan colour is commonly taken as a measure of viable cells.)
The nature of data set [3]: Selectivity index, ratio of CC50 for human CEM-SS cells to EC50 for Antiviral activity against HIV1 3B infected in human CEM-SS cells. It is filed as toxicity, cell-based. To be noted: for selectivity ratio: CEM-SS cells, read-out: Ratio CC50/EC50.
A short description of data set [4]: Thermodynamic solubility of compound in water at 2 mg after 24 hrs. It counts as physicochemical. To be noted: read-out: Therm_solubility.
The nature of data set [5]: Thermodynamic solubility of compound in plON buffer at 2 mg after 24 hrs. It is filed as physicochemical. To be noted: read-out: Therm_solubility.
Data set [6] concerns Human immunodeficiency virus 1. As to the kind of experiment: Antiviral activity against HIV1 3B. It counts as functional, organism-based. To be noted: Human immunodeficiency virus 1, 3B.
Data set [7] concerns Human immunodeficiency virus 1. The data set can be described thus: Antiviral activity against HIV1 3B infected in human CEM-SS cells assessed as reduction in cytopathic effect at 2 nM after 4 days. It is filed as functional. The arrangement: scale not given: the % may be the effect or the level left. To be noted: time 4 day.
[8] abbreviates: Human immunodeficiency virus 1, 3B, CEM-SS, 96 h.

In brackets after ≈: the same amount, converted by molar mass.

With `C[C@H]1CO[C@@H]2Cn3cc(C(=O)NCc4nn(C)c(Cl)c4Cl)c(=O)c(O)c3C(=O)N12`, the EC50 in data set [1] (setting [8]) is 0.59 nM. For the same compound, the CC50 in data set [2] is more than 10 nM. For the same compound, the selectivity ratio in data set [3] is more than 16.9. Besides, the solubility thermodynamic at 24 h in data set [4] and in data set [5] was 318 µg/mL (≈ 719 µM) throughout.
For `C[C@@H]1CCO[C@H]2Cn3cc(C(=O)NCc4ccc(F)nc4F)c(=O)c(O)c3C(=O)N12`, the EC50 in data set [1] (setting [8]) worked out at 5.15 nM. Also, in data set [2], the CC50 was more than 10 nM. In addition, the selectivity ratio in data set [3] was more than 1.9. The solubility thermodynamic at 24 h turned out to be 57 µg/mL (≈ 136 µM) in data set [4] and 80 µg/mL (≈ 190 µM) in data set [5].
On to `C[C@H]1CO[C@@H]2Cn3cc(C(=O)NCc4ncc(F)cc4F)c(=O)c(O)c3C(=O)N12`, for which the solubility thermodynamic at 24 h in data set [4] was 131 µg/mL (≈ 322 µM); in data set [5], 196 µg/mL (≈ 482 µM).
As for `C[C@H]1CO[C@@H]2Cn3cc(C(=O)NCc4cccc5cccnc45)c(=O)c(O)c3C(=O)N12`, in data set [1] (setting [8]), the 50% effective concentration (EC50) came to 2.17 nM. Also, in data set [2], the CC50 was more than 10 nM. The selectivity ratio in data set [3] was more than 4.6. For the same compound, the solubility thermodynamic at 24 h in data set [4] is 10 µg/mL (≈ 23.8 µM); in data set [5], 6 µg/mL (≈ 14.3 µM).
In the case of `C[C@H]1CO[C@@H]2Cn3cc(C(=O)NCc4ccnc5ccccc45)c(=O)c(O)c3C(=O)N12`, the solubility thermodynamic at 24 h in data set [4] was 31 µg/mL (≈ 73.7 µM); in data set [5], 8 µg/mL (≈ 19 µM).
Take `C[C@H]1CO[C@@H]2Cn3cc(C(=O)NCc4c(F)cncc4F)c(=O)c(O)c3C(=O)N12`: the EC50 in data set [1] (setting [8]) is 2.63 nM. In addition, in data set [2], the CC50 was more than 10 nM. Also, the selectivity ratio in data set [3] is more than 3.8. The solubility thermodynamic at 24 h in data set [4] amounted to 347 µg/mL (≈ 854 µM); in data set [5] it was 380 µg/mL (≈ 935 µM).
`C[C@H]1CO[C@@H]2Cn3cc(C(=O)NCc4cccs4)c(=O)c(O)c3C(=O)N12`: the EC50 in data set [1] (setting [8]) came to 1.44 nM. For the same compound, the CC50 in data set [2] is more than 10 nM. In addition, in data set [3], the selectivity ratio was more than 6.9. Also, the solubility thermodynamic at 24 h is 33 µg/mL (≈ 87.9 µM) in data set [4] and 24 µg/mL (≈ 63.9 µM) in data set [5].
For `C[C@H]1CO[C@@H]2Cn3cc(C(=O)NCc4ccc(F)nc4F)c(=O)c([O-])c3C(=O)N12.[Na+]`, the EC50 in data set [1] (cem-ss) came to 4.8 nM. Besides, the “Ratio CC50/EC50” value in data set [3] is given as more than 2.08. Further, the solubility thermodynamic at 24 h in data set [4] stood at 2680 µg/mL; in data set [5], 1680 µg/mL.
`C[C@H]1CO[C@@H]2Cn3cc(C(=O)NCc4ccncc4F)c(=O)c(O)c3C(=O)N12`: the EC50 in data set [1] (setting [8]) is more than 10 nM. Also, the CC50 in data set [2] is more than 10 nM. Further, the solubility thermodynamic at 24 h came to 78 µg/mL (≈ 201 µM) in data set [4] and 91 µg/mL (≈ 234 µM) in data set [5].
`C[C@H]1CO[C@@H]2Cn3cc(C(=O)NCc4cc5c(cc4Br)OCO5)c(=O)c(O)c3C(=O)N12`: the EC50 in data set [1] (setting [8]) stood at 1.93 nM. Besides, in data set [2], the CC50 is more than 10 nM. Further, the selectivity ratio in data set [3] was more than 5.2. In addition, the solubility thermodynamic at 24 h in data set [4] and in data set [5] was 21 µg/mL (≈ 42.7 µM) each time.
For `Cc1cc2c(cc1CNC(=O)c1cn3c(c(O)c1=O)C(=O)N1[C@@H](C)CO[C@@H]1C3)OCCO2`, in data set [1] (setting [8]), the EC50 is more than 10 nM. Further, the CC50 in data set [2] is more than 10 nM. Further, the figures for the solubility thermodynamic at 24 h in data set [4] and in data set [5] were 56 µg/mL (≈ 127 µM) and 70 µg/mL (≈ 159 µM), respectively.
Take `O=C(NCc1c(F)cc(F)cc1F)c1cn2c(c(O)c1=O)C(=O)N1[C@H]3CC[C@H](C3)O[C@@H]1C2` [BICTEGRAVIR]: the EC50 in data set [6] stood at 1 nM.
In the case of `C[C@H]1CO[C@@H]2Cn3cc(C(=O)NCc4ccc(F)cc4F)c(=O)c(O)c3C(=O)N12` [CABOTEGRAVIR], the Activity in data set [7] is reported as more than 50%.
On to `C[C@@H]1CCO[C@H]2Cn3cc(C(=O)NCc4ccc(F)cc4F)c(=O)c(O)c3C(=O)N12` [DOLUTEGRAVIR], for which the response in data set [6] was half-maximal at 1.1 nM (EC50).

The term EC50 denotes the concentration giving half of the maximal effect. For orientation: CC50 means the concentration at which the toxic effect on the cells reaches its halfway point.
